Assay results taken from ChEMBL document CHEMBL5465560, “Selectivity Literature for EUbOPEN Chemogenomic Library” (2024).

How the values were obtained:
[1] = target: T1, Tyrosine-protein kinase ITK/TSK (Homo sapiens) (UniProt Q08881); test: Selectivity interaction (KinomeScan (DiscoverX)) EUB0001049a ITK; details: at 1 µM
T1 sequence (whole entry): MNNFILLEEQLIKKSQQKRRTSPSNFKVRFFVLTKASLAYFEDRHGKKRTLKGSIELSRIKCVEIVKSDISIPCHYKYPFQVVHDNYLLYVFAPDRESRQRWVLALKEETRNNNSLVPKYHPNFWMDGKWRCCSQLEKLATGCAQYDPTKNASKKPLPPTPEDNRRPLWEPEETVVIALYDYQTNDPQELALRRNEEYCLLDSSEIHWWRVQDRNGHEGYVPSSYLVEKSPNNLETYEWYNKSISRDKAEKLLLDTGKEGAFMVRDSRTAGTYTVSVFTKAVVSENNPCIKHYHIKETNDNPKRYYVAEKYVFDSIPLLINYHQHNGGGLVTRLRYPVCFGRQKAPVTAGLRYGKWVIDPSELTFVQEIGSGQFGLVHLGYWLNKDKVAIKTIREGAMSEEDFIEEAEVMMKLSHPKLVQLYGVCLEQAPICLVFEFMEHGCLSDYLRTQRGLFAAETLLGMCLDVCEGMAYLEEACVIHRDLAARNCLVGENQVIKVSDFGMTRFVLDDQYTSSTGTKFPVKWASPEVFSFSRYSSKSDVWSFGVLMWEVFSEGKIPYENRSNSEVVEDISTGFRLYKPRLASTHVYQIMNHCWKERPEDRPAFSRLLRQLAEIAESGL

[2] = target: Tyrosine-protein kinase SYK (Homo sapiens, UniProt P43405); test: Selectivity interaction (KinaseProfiler screening (Millipore)) EUB0000601a SYK; details: at 3 µM
[3] = target: Serine/threonine-protein kinase SIK1 (Homo sapiens) (UniProt P57059); test: Selectivity interaction (KinomeScan (DiscoverX)) EUB0001079a SIK1; details: at 1 µM
Serine/threonine-protein kinase SIK1 (Homo sapiens), sequence (P57059 whole entry): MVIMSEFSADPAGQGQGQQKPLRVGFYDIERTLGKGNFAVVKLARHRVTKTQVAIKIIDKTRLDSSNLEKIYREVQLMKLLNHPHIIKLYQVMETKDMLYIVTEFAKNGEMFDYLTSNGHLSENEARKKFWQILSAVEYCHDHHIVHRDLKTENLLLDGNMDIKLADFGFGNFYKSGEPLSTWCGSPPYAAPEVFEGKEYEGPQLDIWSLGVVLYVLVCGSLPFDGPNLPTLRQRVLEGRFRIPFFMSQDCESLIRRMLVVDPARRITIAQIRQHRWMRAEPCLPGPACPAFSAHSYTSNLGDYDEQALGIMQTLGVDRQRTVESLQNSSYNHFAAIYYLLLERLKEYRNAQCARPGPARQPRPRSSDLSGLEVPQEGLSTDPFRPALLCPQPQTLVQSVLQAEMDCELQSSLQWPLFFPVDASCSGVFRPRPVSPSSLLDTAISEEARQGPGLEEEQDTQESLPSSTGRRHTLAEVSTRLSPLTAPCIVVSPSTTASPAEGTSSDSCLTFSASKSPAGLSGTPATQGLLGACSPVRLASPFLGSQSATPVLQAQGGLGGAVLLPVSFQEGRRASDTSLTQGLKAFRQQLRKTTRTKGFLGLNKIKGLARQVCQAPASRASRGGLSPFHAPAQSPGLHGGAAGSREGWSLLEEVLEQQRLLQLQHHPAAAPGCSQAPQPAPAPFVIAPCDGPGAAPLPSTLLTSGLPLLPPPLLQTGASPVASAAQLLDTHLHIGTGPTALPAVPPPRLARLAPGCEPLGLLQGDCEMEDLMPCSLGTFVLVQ

[4] = target: High affinity nerve growth factor receptor (Homo sapiens, UniProt P04629); test: Selectivity interaction (Ambit KINOMEscan and KiNATiv profiling in Jurkat cells) EUB0000090b NTRK1; type: cell-based; details: at 1 µM
High affinity nerve growth factor receptor, sequence (P04629 33-796 limits assumed): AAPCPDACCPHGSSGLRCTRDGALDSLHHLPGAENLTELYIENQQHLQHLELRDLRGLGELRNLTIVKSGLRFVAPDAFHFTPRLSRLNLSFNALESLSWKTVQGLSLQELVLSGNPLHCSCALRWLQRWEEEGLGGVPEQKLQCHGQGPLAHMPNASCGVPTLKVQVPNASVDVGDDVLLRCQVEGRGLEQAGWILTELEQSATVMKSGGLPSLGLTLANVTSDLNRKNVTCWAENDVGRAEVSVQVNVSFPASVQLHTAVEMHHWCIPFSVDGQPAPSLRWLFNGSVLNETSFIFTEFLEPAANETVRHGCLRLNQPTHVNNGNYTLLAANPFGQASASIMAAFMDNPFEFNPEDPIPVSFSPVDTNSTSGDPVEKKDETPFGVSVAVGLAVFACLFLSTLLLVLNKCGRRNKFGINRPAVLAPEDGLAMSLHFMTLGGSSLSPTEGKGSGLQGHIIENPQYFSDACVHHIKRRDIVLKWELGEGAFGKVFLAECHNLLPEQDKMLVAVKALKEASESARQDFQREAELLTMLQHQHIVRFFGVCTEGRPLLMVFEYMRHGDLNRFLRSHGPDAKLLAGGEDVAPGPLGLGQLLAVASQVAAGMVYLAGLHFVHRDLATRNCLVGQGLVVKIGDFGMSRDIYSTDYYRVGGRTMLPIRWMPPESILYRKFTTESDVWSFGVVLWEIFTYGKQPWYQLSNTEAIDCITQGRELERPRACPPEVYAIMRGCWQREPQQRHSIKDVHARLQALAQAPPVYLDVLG

[5] = tested on: eIF-2-alpha kinase GCN2 (Homo sapiens), Q9P2K8 [S808G]; test: Selectivity interaction (Ambit KINOMEscan and KiNATiv profiling in Jurkat cells) EUB0000090b EIF2AK4; type: cell-based; details: at 1 µM
eIF-2-alpha kinase GCN2 (Homo sapiens), Q9P2K8 [S808G], sequence (Q9P2K8 whole entry S808G): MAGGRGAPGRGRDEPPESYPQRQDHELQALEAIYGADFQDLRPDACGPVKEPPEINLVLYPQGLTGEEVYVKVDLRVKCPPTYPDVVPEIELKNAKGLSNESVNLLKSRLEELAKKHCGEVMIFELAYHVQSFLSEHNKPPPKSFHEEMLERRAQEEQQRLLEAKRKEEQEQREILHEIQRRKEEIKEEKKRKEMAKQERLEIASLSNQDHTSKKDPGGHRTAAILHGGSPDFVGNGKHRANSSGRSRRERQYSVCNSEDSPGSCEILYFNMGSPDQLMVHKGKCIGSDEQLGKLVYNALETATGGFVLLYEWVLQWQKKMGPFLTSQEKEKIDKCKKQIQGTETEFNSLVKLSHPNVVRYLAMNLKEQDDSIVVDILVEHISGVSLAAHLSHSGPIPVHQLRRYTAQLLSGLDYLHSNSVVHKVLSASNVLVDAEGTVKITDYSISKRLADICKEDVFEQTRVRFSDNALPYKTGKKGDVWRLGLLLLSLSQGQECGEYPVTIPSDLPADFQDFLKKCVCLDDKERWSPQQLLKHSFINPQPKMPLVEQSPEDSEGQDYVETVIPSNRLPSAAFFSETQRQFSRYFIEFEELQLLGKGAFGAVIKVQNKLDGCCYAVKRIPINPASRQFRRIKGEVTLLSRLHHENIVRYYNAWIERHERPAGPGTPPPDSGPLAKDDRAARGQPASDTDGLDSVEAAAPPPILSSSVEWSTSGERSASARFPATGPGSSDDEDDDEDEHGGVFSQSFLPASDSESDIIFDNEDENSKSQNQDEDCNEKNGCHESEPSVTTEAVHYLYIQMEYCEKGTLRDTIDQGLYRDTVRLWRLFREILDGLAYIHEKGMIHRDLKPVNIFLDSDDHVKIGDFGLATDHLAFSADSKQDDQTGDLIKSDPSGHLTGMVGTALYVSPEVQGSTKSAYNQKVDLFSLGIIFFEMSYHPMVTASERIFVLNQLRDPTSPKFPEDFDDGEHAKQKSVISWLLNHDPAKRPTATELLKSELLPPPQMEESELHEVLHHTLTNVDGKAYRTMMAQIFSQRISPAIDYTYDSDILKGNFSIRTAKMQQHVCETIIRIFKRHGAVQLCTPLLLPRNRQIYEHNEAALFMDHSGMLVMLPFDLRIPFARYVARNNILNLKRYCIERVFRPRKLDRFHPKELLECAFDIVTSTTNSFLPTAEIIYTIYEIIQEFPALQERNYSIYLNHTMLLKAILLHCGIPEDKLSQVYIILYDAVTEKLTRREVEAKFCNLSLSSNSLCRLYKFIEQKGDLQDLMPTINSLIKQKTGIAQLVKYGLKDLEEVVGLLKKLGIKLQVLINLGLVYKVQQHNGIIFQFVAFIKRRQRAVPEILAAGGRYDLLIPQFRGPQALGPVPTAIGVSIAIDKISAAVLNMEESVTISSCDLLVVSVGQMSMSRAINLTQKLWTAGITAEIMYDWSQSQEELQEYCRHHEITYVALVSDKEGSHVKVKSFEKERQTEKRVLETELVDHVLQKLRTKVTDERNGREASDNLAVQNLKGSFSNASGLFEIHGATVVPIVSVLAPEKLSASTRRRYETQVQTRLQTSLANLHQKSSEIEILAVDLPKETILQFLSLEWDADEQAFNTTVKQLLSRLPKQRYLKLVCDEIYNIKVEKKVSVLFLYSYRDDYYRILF

[6] = target: Tyrosine-protein kinase Fes/Fps (Homo sapiens) (UniProt P07332); test: Selectivity interaction (Ambit KINOMEscan and KiNATiv profiling in Jurkat cells) EUB0000090b FES; type: cell-based; details: at 1 µM
Tyrosine-protein kinase Fes/Fps (Homo sapiens), sequence (P07332 whole entry): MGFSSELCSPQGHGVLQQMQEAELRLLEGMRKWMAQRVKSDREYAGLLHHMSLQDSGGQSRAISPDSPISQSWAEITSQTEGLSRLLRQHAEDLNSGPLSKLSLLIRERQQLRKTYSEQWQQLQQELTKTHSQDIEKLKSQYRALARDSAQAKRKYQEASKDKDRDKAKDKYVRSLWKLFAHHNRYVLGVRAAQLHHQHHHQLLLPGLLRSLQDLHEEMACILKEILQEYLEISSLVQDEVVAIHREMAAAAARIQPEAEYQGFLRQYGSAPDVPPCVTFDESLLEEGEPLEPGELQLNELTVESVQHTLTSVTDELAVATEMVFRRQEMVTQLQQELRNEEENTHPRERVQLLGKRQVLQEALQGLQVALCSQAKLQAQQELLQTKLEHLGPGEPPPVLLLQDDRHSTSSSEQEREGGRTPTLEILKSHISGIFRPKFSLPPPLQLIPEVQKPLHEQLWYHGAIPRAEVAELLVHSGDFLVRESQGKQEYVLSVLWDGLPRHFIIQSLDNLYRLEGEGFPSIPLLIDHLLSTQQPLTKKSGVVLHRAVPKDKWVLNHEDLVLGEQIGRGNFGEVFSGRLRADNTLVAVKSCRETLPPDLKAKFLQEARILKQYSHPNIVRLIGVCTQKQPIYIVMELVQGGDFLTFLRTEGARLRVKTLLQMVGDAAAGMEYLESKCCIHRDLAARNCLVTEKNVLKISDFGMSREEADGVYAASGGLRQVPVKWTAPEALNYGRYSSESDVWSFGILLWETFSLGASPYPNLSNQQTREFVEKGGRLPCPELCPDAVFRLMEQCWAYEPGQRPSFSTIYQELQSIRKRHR

[7] = target: T2, Rhodopsin kinase GRK7 (Homo sapiens) (UniProt Q8WTQ7); test: Selectivity interaction (KinomeScan (DiscoverX)) EUB0000045b GRK7
T2 sequence (whole entry): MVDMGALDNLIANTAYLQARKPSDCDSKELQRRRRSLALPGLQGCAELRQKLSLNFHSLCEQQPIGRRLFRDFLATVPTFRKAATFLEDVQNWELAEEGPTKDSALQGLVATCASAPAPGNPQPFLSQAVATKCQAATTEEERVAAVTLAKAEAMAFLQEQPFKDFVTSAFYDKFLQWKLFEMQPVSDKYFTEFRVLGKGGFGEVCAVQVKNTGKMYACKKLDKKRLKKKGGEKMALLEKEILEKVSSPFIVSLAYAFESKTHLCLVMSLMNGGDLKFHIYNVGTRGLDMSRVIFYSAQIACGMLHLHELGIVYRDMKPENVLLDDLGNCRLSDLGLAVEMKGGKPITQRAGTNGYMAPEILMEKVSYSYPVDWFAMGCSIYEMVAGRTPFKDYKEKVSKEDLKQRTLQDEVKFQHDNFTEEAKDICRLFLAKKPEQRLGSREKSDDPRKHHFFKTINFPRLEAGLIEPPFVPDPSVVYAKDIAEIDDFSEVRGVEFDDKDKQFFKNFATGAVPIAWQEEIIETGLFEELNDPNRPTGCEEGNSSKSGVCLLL

[8] = target: T3, Mitogen-activated protein kinase 12 (Homo sapiens) (UniProt P53778); test: Selectivity interaction (KinomeScan (DiscoverX)) EUB0001619a MAPK12; details: at 1 µM
T3 sequence (whole entry): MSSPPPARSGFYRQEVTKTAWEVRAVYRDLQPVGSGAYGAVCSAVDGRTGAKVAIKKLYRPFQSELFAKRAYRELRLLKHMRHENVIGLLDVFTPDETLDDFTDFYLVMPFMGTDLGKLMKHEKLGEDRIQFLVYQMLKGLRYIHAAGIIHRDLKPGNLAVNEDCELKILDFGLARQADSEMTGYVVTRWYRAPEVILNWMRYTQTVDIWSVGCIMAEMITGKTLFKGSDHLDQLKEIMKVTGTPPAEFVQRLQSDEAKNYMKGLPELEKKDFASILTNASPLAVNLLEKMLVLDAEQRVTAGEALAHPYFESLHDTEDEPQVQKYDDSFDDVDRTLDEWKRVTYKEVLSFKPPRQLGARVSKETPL

[9] = target: T4, MAP kinase-activated protein kinase 5 (Homo sapiens) (UniProt Q8IW41); test: Selectivity interaction (KinomeScan (DiscoverX)) EUB0000607a MAPKAPK5; details: at 10 µM
T4 sequence (whole entry): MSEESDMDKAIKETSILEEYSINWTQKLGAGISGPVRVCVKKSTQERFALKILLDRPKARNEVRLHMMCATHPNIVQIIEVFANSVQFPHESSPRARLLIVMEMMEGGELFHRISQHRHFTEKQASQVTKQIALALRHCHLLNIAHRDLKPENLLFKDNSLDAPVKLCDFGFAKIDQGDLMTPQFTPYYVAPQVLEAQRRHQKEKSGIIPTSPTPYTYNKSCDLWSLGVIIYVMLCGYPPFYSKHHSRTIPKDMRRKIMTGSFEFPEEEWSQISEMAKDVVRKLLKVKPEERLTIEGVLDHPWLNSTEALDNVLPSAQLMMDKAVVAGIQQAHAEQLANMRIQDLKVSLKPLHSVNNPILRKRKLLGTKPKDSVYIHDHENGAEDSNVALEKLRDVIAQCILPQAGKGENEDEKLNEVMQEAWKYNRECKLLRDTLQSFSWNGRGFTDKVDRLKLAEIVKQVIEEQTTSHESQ

[10] = target: T5, Serine/threonine-protein kinase Sgk2 (Homo sapiens) (UniProt Q9HBY8); test: Selectivity interaction (SelectScreen profiling (Invitrogen)) EUB0000607a SGK2; details: at 2 µM
T5 sequence (whole entry): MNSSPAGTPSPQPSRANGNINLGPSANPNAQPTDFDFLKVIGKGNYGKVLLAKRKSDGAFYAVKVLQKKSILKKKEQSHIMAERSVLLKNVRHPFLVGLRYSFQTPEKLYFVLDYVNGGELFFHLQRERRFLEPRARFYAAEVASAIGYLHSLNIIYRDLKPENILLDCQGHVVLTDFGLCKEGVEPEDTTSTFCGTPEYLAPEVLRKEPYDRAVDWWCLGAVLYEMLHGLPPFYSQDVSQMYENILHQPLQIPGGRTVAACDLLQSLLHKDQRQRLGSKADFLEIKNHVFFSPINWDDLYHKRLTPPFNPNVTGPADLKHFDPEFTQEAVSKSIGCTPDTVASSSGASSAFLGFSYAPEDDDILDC

## COc1cc(Nc2nc(C)cc(-c3cnn4nc(OC)ccc34)n2)cc(C(F)(F)F)c1
[1]
  % of control: 82%

## CCc1cc(Nc2nccc(-c3c(-c4ccc(OC)c(C(=O)Nc5c(F)cccc5F)c4)nc4ccccn34)n2)c(OC)cc1N1CCC(N2CCN(S(C)(=O)=O)CC2)CC1
[2]
  % of inhibition: 50%

## Nc1cnc(N2CCc3cc(S(=O)(=O)Nc4c(F)cc(Cl)cc4F)cc(N4CCCC4=O)c32)nc1 [TP-020n]
[3]
  % of control: 100%

## CN(C)C/C=C/C(=O)Nc1ccc(C(=O)N2CCCC(Nc3ncc(Cl)c(-c4c[nH]c5ccccc45)n3)C2)cc1 (stereo unspecified)
[4]
  % of control: 78%
[5]
  % of control: 64%
[6]
  % of control: 68%

## C=CC(=O)Nc1cc(-n2c(=O)ccc3cnc4ccc(-c5ccc(NS(C)(=O)=O)cc5)cc4c32)ccc1C
[7]; at 1 µM
  % of control: 75%
[7]; at 10 µM
  % of control: 84%

## N#Cc1cccc(-c2c[nH]c3ncnc(N4CCOCC4)c23)c1
[8]
  % of control: 100%

## CNC(=O)Nc1ccc(-c2nc(N3CC4CCC(C3)O4)c3cnn(C4CCC5(CC4)OCCO5)c3n2)cc1
[9]
  % of control: 100%
[10]
  % of inhibition: 5%
